# Data taken from US20260294915A1, “COMBINATION THERAPY COMPRISING A MAT2A INHIBITOR AND A TOPOISOMERASE INHIBITOR, A SPLICING INHIBITOR SULFONAMIDE, OR A KIF18 INHIBITOR” (IDEAYA BIOSCIENCES, INC., priority 2023, published 2026).
# Marks after values point to notes of the source that are not given here.
# Legend:
# Test in all cases: 10-day proliferation (CTG), SPLAM titration + 1000 nM Compound A, Bliss (Example 5; Tables 12-19)
# Type in all cases: cell-based
# [1] = system: NCI-H838; parameters: key: GDI scale -100 to 100; 0 = cell number at T0; <0 cytotoxic
# Experimental: Synergy was measured across the Indisulam titration with 1000 nM Compound A by Bliss Independence analysis. Bliss scores >10 are indicated by “*” and are considered synergistic. […] Synergy as reported using Bliss may be underrepresented within cytotoxic dose ranges. Growth death index values are shown for the combination titration and each single agent Compound A (Cmpd A) and Indisulam on a scale of −100 to 100 with the midpoint (0) being the number of cells at the beginning of the combination (T0). Scores less than 0 are indicated with “**” and are representative of a cytotoxic response. Bliss and GDI values are shown for five MTAP-deficient cell lines: NCI-1H838 (12A), SW900 (12B), RT112/84 (12C), UMUC5 (121D), and UMUC11 (12E).
# (§1) A 10-day proliferation assay was performed in a panel of 5 MTAP-deficient and 2 wild type non-small cell lung and bladder cancer cell lines. Optimal cell seeding for all cell lines was determined by assessing the growth over a range of seeding densities in a 384-well format to identify conditions that permitted proliferation for 10 days. Cells were then plated at the optimal seeding density and treated with 20-point, two-fold dilution series of each of four structurally different SPLAMs in combination with a 1000 nM fixed concentration of Compound A. Single agent titrations for Compound A and each SPLAM were included for comparison. Concentrations tested for each SPLAM alone or in combination ranged from 0.04 nM to 20,000 nM. A plate of cells was harvested at the time of compound addition to quantify the number of cells at the start of the combination (T0). For cell quantification, the harvested cells were lysed with Promega CellTiter-Glo (CTG) reagent according to the manufacturer's protocol and the chemiluminescent signal was detected as described in Example 1 above. Cells were incubated with the drug combinations at 37° C. with 5% CO2 for 10 days. Cells were then lysed with CTG and the chemiluminescent signal was measured.
# (§2) CTG values obtained after the 10-day treatment were background subtracted and expressed as a percent of the T0 value set at 100%. Data were plotted against compound concentration and fit with a four-parameter equation to generate single agent dose response curves. Percent inhibition was determined for each combination and single agent concentration compared to a DMSO control. In addition, the overall net growth or death of the cells was calculated and reported as a growth death index (GDI) value on a scale of −100 to 100 with the midpoint (0) being the number of cells at the beginning of the combination (T0).
# (§3) Predicted inhibition was calculated using (Ea+Eb)−(Ea*Eb) where E equals the effect (inhibition) of each single agent (a and b). A difference between the observed inhibition percentage and the predicted inhibition percentage greater than 10% was considered synergistic. A Bliss score was only reported for combinations eliciting >20% growth inhibition (GDI value <80). Since Bliss is calculated based on growth inhibition, scores within cytotoxic dose ranges may not accurately reflect synergistic cytoxicity.
# Synergy was measured across the E7820 titration with 1000 nM Compound A by Bliss Independence analysis. Bliss scores >10 are indicated by “*” and are considered synergistic. […] Synergy as reported using Bliss may be underrepresented within cytotoxic dose ranges. Growth death index values are shown for the combination titration and each single agent Compound A (Cmpd A) and Indisulam on a scale of −100 to 100 with the midpoint (0) being the number of cells at the beginning of the combination (T0). Scores less than 0 are indicated by “**” and are representative of a cytotoxic response. Bliss and GDI values are shown for five MTAP-deficient cell lines: NCI-1H838 (14A), SW900 (14B), RT112/84 (14C), UMUC5 (141)), and UMUC11 (14E).
# Synergy was measured across the Chloroquinoxaline Sulfonamide titration with 1000 nM Compound A by Bliss Independence analysis.
# [2] = system: TCCSUP; parameters: key: −100 to 100; 0 = cell number at T0, <0 = cytotoxic; settings: for GDI (growth death index), single agent Cmpd A: TCCSUP, 1000 nM Compound A
# Experimental: as §1, §2, §3
# (§4) Synergy was measured across the Indisulam titration with 1000 nM Compound A by Bliss Independence analysis. Bliss scores >10 are indicated by “*” and are considered synergistic. […] Synergy as reported using Bliss may be underrepresented within cytotoxic dose ranges. Growth death index values are shown for the combination titration and each single agent Compound A (Cmpd A) and Indisulam on a scale of −100 to 100 with the midpoint (0) being the number of cells at the beginning of the combination (T0). Scores less than 0 are highlighted black and are representative of a cytotoxic response. Bliss and GDI values are shown for five MTAP-deficient cell lines: NCI-H520 (13A), TCCSUP (13B).
# (§5) Synergy was measured across the E7820 titration with 1000 nM Compound A by Bliss Independence analysis. Bliss scores >10 are indicated by “*” and are considered synergistic. […] Synergy as reported using Bliss may be underrepresented within cytotoxic dose ranges. Growth death index values are shown for the combination titration and each single agent Compound A (Cmpd A) and Indisulam on a scale of −100 to 100 with the midpoint (0) being the number of cells at the beginning of the combination (T0). Scores less than 0 are indicated by “**” and are representative of a cytotoxic response. Bliss and GDI values are shown for five MTAP-deficient cell lines: NCI-H520 (15A), TCCSUP (15B).
# (§6) Synergy was measured across the Chloroquinoxaline Sulfonamide titration with 1000 nM Compound A by Bliss Independence analysis. Bliss scores >10 are indicated by and are considered synergistic.
# [3] = system: NCI-H520; parameters: key: −100 to 100; 0 = cell number at T0, <0 = cytotoxic; settings: for GDI (growth death index), single agent Cmpd A: NCI-H520, 1000 nM Compound A
# Experimental: as §1, §2, §3, §4, §5, §6
# [4] = SPLAM 0.04 nM, alone or + 1 uM Cmpd A
# [5] = SPLAM 0.1 nM, alone or + 1 uM Cmpd A
# [6] = SPLAM 0.2 nM, alone or + 1 uM Cmpd A
# [7] = SPLAM 0.3 nM, alone or + 1 uM Cmpd A
# [8] = SPLAM 0.6 nM, alone or + 1 uM Cmpd A
# [9] = SPLAM 1.2 nM, alone or + 1 uM Cmpd A
# [10] = SPLAM 2.4 nM, alone or + 1 uM Cmpd A
# [11] = SPLAM 4.9 nM, alone or + 1 uM Cmpd A
# [12] = SPLAM 9.8 nM, alone or + 1 uM Cmpd A
# [13] = SPLAM 19.5 nM, alone or + 1 uM Cmpd A
# [14] = SPLAM 39.1 nM, alone or + 1 uM Cmpd A
# [15] = SPLAM 78.1 nM, alone or + 1 uM Cmpd A
# [16] = SPLAM 156.3 nM, alone or + 1 uM Cmpd A
# [17] = SPLAM 312.5 nM, alone or + 1 uM Cmpd A
# [18] = SPLAM 625 nM, alone or + 1 uM Cmpd A
# [19] = SPLAM 1250 nM, alone or + 1 uM Cmpd A
# [20] = SPLAM 2500 nM, alone or + 1 uM Cmpd A
# [21] = SPLAM 5000 nM, alone or + 1 uM Cmpd A
# [22] = SPLAM 10000 nM, alone or + 1 uM Cmpd A
# [23] = SPLAM 20000 nM, alone or + 1 uM Cmpd A
compound,measurement,setting,value
Nc1nc(=O)n(-c2ccccc2Cl)c2nc(C(F)(F)F)ccc12 [Compound A],"GDI (growth death index), single agent Cmpd A","[1]; NCI-H838, 1000 nM Compound A, Table 18A",49
same,GDI,"[1]; single agent Cmpd A, 1000 nM",49
same,"GDI (growth death index), single agent Cmpd A",[2]; Table 17B,84
same,"GDI (growth death index), single agent Cmpd A",[2]; Table 19B,84
same,GDI,"[2]; single agent Cmpd A, 1000 nM",84
same,"GDI (growth death index), single agent Cmpd A",[3]; Table 17A,100
same,"GDI (growth death index), single agent Cmpd A",[3]; Table 19A,100
same,GDI,"[3]; single agent Cmpd A, 1000 nM",100
"Cc1ccc(NS(=O)(=O)c2cccc(C#N)c2)c2[nH]cc(C#N)c12 [Compound E7820, 3-cyano-N-(3-cyano-4-methyl-1H-indol-7-yl)benzenesulfonamide]",GDI,[1]; [4],100
same,GDI,[1]; [5],100
same,GDI,[1]; [6],100
same,GDI,[1]; [7],100
same,GDI,[1]; [8],100
same,GDI,[1]; [9],100
same,GDI,[1]; [10],100
same,GDI,[1]; [11],100
same,GDI,[1]; [12],100
same,GDI,[1]; [13],100
same,GDI,[1]; [14],100
same,GDI,[1]; [15],100
same,GDI,[1]; [16],100
same,GDI,[1]; [17],76
same,GDI,[1]; [18],13
same,GDI,[1]; [19],4
same,GDI,[1]; [20],1
same,GDI,[1]; [21],−13**
same,GDI,[1]; [22],−64**
same,GDI,[1]; [23],−46**
same,GDI,[2]; [4],100
same,GDI,[2]; [5],100
same,GDI,[2]; [6],100
same,GDI,[2]; [7],100
same,GDI,[2]; [8],100
same,GDI,[2]; [9],100
same,GDI,[2]; [10],100
same,GDI,[2]; [11],100
same,GDI,[2]; [12],100
same,GDI,[2]; [13],100
same,GDI,[2]; [14],100
same,GDI,[2]; [15],100
same,GDI,[2]; [16],100
same,GDI,[2]; [17],100
same,GDI,[2]; [18],100
same,GDI,[2]; [19],100
same,GDI,[2]; [20],100
same,GDI,[2]; [21],92
same,GDI,[2]; [22],91
same,GDI,[2]; [23],78
same,GDI,[3]; [4],100
same,GDI,[3]; [5],100
same,GDI,[3]; [6],100
same,GDI,[3]; [7],100
same,GDI,[3]; [8],100
same,GDI,[3]; [9],100
same,GDI,[3]; [10],100
same,GDI,[3]; [11],100
same,GDI,[3]; [12],100
same,GDI,[3]; [13],100
same,GDI,[3]; [14],100
same,GDI,[3]; [15],100
same,GDI,[3]; [16],100
same,GDI,[3]; [17],82
same,GDI,[3]; [18],54
same,GDI,[3]; [19],32
same,GDI,[3]; [20],21
same,GDI,[3]; [21],11
same,GDI,[3]; [22],8
same,GDI,[3]; [23],5
"NS(=O)(=O)c1ccc(S(=O)(=O)Nc2cccc3c(Cl)c[nH]c23)cc1 [Indisulam, N-(3-chloro-1H-indol-7-yl)benzene-1,4-disulfonamide]",GDI,[1]; [4],100
same,GDI,[1]; [5],100
same,GDI,[1]; [6],100
same,GDI,[1]; [7],100
same,GDI,[1]; [8],100
same,GDI,[1]; [9],100
same,GDI,[1]; [10],100
same,GDI,[1]; [11],100
same,GDI,[1]; [12],100
same,GDI,[1]; [13],100
same,GDI,[1]; [14],100
same,GDI,[1]; [15],100
same,GDI,[1]; [16],100
same,GDI,[1]; [17],54
same,GDI,[1]; [18],11
same,GDI,[1]; [19],2
same,GDI,[1]; [20],1
same,GDI,[1]; [21],−13**
same,GDI,[1]; [22],−50**
same,GDI,[1]; [23],−52**
same,GDI,[2]; [4],100
same,GDI,[2]; [5],100
same,GDI,[2]; [6],100
same,GDI,[2]; [7],100
same,GDI,[2]; [8],100
same,GDI,[2]; [9],100
same,GDI,[2]; [10],100
same,GDI,[2]; [11],100
same,GDI,[2]; [12],100
same,GDI,[2]; [13],100
same,GDI,[2]; [14],100
same,GDI,[2]; [15],100
same,GDI,[2]; [16],100
same,GDI,[2]; [17],100
same,GDI,[2]; [18],100
same,GDI,[2]; [19],100
same,GDI,[2]; [20],100
same,GDI,[2]; [21],100
same,GDI,[2]; [22],86
same,GDI,[2]; [23],70
same,GDI,[3]; [4],95
same,GDI,[3]; [5],100
same,GDI,[3]; [6],100
same,GDI,[3]; [7],100
same,GDI,[3]; [8],100
same,GDI,[3]; [9],100
same,GDI,[3]; [10],100
same,GDI,[3]; [11],100
same,GDI,[3]; [12],100
same,GDI,[3]; [13],100
same,GDI,[3]; [14],100
same,GDI,[3]; [15],100
same,GDI,[3]; [16],100
same,GDI,[3]; [17],97
same,GDI,[3]; [18],45
same,GDI,[3]; [19],25
same,GDI,[3]; [20],12
same,GDI,[3]; [21],6
same,GDI,[3]; [22],6
same,GDI,[3]; [23],2
